# Square brackets hold non-standard residues; d marks the D form. Primed or numbered codes have the meaning given here. Peptide text beside a SMILES is read from it. PEG12 = NCCOCCOCCOCCOCCOCCOCCOCCOCCOCCOCCOCCOCCC(=O)O; PEG11′ = not defined here
# How the values were obtained:
# H1299 Cells = test: SRI_MGS2_V4 uptake profile (effective dose, stoichiometry, rate of uptake); type: cell-based
# From the text: (§1) 1. Example 1: Effective Dose, Stoichiometry, and Rate of Uptake for MGS 2
# H358 Cells = test: as above; type: cell-based
# From the text: as §1
# H2009 Cells = test: as above; type: cell-based
# From the text: as §1
# H1993 Cells [1] = test: as above; type: cell-based
# From the text: as §1
# [2] = tested on: Non-Small Cell Lung Cancer; test: Cellular location of MGS, carcinomas and solid tumors; type: cell-based; conditions: for MSG Code and Cellular Location: Table 2, Intracellular = uptake confirmed, exact compartment not determined; for Cellular Location: Table 3, Carcinomas and Solid Tumors
# From the text: (§2) The FOX-Three platform is based on established phage display libraries containing 10^9-10^12 candidate peptide-based MGS members that can be rapidly screened against target cells and subcellular systems to identify specifically targeted MGSs (FIG. 2). Peptides are a well-understood class of biomolecule that are readily synthesized by biological processes and through man-made chemical processes. […] It can be applied to any cell type, regardless of knowledge about the molecular features of that cell, producing a lead MGS in 2-4 weeks. Selected peptide-based MGSs are then readily engineered for optimal performance.
# (§3) The FOX-Three Platform has already been validated for targeting of cells and subcellular components. A number of validated MGSs are in various stages of development (Table 1) for a variety of cell targeting systems. Methods of conjugating a variety of payloads to the peptide MGSs have been established without disrupting their targeting ability. […] The FOX-Three screening process was recently refined to include subcellular location targeting as a selection criteria. MGSs have been isolated that accumulate in lysosomes, autophagosomes, and Golgi inside cancer cells, as well as target the plasma membrane.
# [3] = tested on: Carcinomas and Solid Tumors; test: In vivo targeting of MGS; conditions: Table 3; homing to target cell in an animal model
# From the text: as §3
# H1993 Cells [4] = test: siRNA internalization with and without MGS (FIG. 5); type: cell-based; conditions: SA-647, 5′-Biotinylated siRNA+SA-647, 3′-Biotinylated siRNA+SA-647, alone or conjugated to the MGS
# Protocol: With this objective, novel MGSs were applied to facilitate cell-specific delivery of siRNA. As previously mentioned, these MGSs have the unique ability to bind to specific epithelial-derived cancer cell types, and upon binding, triggers rapid internalization and trafficking to specific subcellular locations. The chemically optimized MGSs have 1-2 nM affinities for their cellular targets, serum stability greater than 48 hours, and approximately 50-1000-fold specificity for targeted cancer cells over normal control cells. […] Internalization experiments were first performed using H1993 cells. For this set of experiments, the group of bars at the far right are 5′-Biotinylated siRNA+SA-647 and 3′-Biotinylated siRNA+SA-647 without MGS. The middle and far left bar groups show SA-647, 5′-Biotinylated siRNA+SA-647, and 3′-Biotinylated siRNA+SA-647 conjugated to a first MGS (SRI_MGS1_V4, right) and a second MGS (SRI_MGS2_V4, middle).
# Dendritic Cells = test: Cellular location of MGS, dendritic cells; type: cell-based; conditions: Table 2
# From the text: as §2
# Lymphoma Cells = test: Cellular location of MGS, lymphoma and leukemia; type: cell-based; conditions: Table 2
# From the text: as §2
# Cardiomyocytes = test: Cellular location of MGS, cardiomyocytes; type: cell-based; conditions: Table 2
# From the text: as §2
compound,measurement,setting,value
"CC(=O)N[C@@H](Cc1ccc(O)cc1)C(=O)N[C@@H](C)C(=O)N[C@@H](C)C(=O)N[C@@H](Cc1c[nH]c2ccccc12)C(=O)N1CCC[C@H]1C(=O)N[C@@H](C)C(=O)N[C@@H](CO)C(=O)NCC(=O)N[C@@H](C)C(=O)N[C@@H](Cc1c[nH]c2ccccc12)C(=O)N[C@H](C(=O)NCCOCCOCCOCCOCCOCCOCCOCCOCCOCCOCCOCCOCCC(=O)N[C@@H](CS)C(N)=O)[C@@H](C)O [SRI_MGS2_V4, CH3CO-YAAWPASGAWT-PEG11-C-NH2] (Ac-YAAWPASGAWT[PEG12]C-NH2)","Molecules Internalized, 6 H","H1299 Cells; H1299 cells, 6 H with constant incubation of 20 nM MGS",125500 ± 5430 molecules
same,Saturation (molecules),"H1299 Cells; H1299 cells, average number of MGS molecules internalized per cell at saturation concentration at 1 H",112800 ± 15500 molecules
same,t1/2,"H1299 Cells; H1299 cells, rate of uptake",37 min
same,Specificity,H1299 Cells; ratio of MGS uptake on H1299 vs. normal human bronchial epithelial cell line (HBEC),1400
same,"Molecules Internalized, 6 H","H358 Cells; H358 cells, 6 H with constant incubation of 20 nM MGS",97100 ± 4830 molecules
same,Saturation (molecules),"H358 Cells; H358 cells, average number of MGS molecules internalized per cell at saturation concentration at 1 H",99900 ± 9640 molecules
same,t1/2,"H358 Cells; H358 cells, rate of uptake",11 min
same,Specificity,H358 Cells; ratio of MGS uptake on H358 vs. normal human bronchial epithelial cell line (HBEC),1100
same,"Molecules Internalized, 6 H","H2009 Cells; H2009 cells, 6 H with constant incubation of 20 nM MGS",49500 ± 2230 molecules
same,Saturation (molecules),"H2009 Cells; H2009 cells, average number of MGS molecules internalized per cell at saturation concentration at 1 H",68300 ± 3030 molecules
same,t1/2,"H2009 Cells; H2009 cells, rate of uptake",13 min
same,Specificity,H2009 Cells; ratio of MGS uptake on H2009 vs. normal human bronchial epithelial cell line (HBEC),560
same,"Molecules Internalized, 6 H","H1993 Cells [1]; H1993 cells, 6 H with constant incubation of 20 nM MGS",134300 ± 6300 molecules
same,Saturation (molecules),"H1993 Cells [1]; H1993 cells, average number of MGS molecules internalized per cell at saturation concentration at 1 H",141600 ± 28200 molecules
same,t1/2,"H1993 Cells [1]; H1993 cells, rate of uptake",12 min
same,Specificity,H1993 Cells [1]; ratio of MGS uptake on H1993 vs. normal human bronchial epithelial cell line (HBEC),2300
AHTIDDEWASYHMQQWNSPP (MGS peptide) [MGS_H2009.4],MSG Code and Cellular Location,[2],MGS_H2009.4_Golgi/ER
ATEPRKQYATPRVFWTDAPG (MGS peptide) [MGS_HCC15.1],In Vivo Targeting,[3],Yes
same,MSG Code and Cellular Location,[2],MGS_HCC15.1_Intracellular
same,Cellular Location,[2],Lysosome
CH3CO-RGDLATLRQL-PEG11-YC-NH2 (Ac-RGDLATLRQL[PEG11′]YC-NH2) [SRI_MGS1_V4],molecules internalized per cell,H1993 Cells [4],approximately 25000 molecules internalized per cell
EAMNSAEQSAAVVQWEKRRI (MGS peptide) [MGS_H460.1],MSG Code and Cellular Location,[2],MGS_H460.1_PlasmaMembrane
EHPWFNMWSWATQVQE (MGS peptide) [MGS_H2009.2],MSG Code and Cellular Location,[2],MGS_H2009.2_Lysosome
same,Cellular Location,[2],Lysosome
FAAKRAEWWDPGQLWDAVWN (MGS peptide) [MGS_H1993.2],MSG Code and Cellular Location,[2],MGS_H1993.2_Intracellular
FEEFYSRQSNTIPYPQQYKG (MGS peptide) [MGS_H2009.5],MSG Code and Cellular Location,[2],MGS_H2009.5_ER/Lysosome
FHAVPQSFYTAP (MGS peptide) [MGS_HCC15.2],In Vivo Targeting,[3],Yes
same,MSG Code and Cellular Location,[2],MGS_HCC15.2_Lysosomal
same,Cellular Location,[2],Lysosome
GPEDTSRAPENQQKTFHRRW (MGS peptide) [MGS_XS52.1],MSG Code and Cellular Location,Dendritic Cells,MGS_XS52.1_Intacellular
KSREHVNNSACPSKRITAAL (MGS peptide) [MGS_A20.2],MSG Code and Cellular Location,Lymphoma Cells,MGS_A20.2_ Plasma Membrane
LQWRRDDNVHNFGVWARYRL (MGS peptide) [MGS_1299.3],In Vivo Targeting,[3],Yes
same,MSG Code and Cellular Location,[2],MGS_H1299.3_Autophagosomes
same,Cellular Location,[2],Autophagasome
MDGATWWTQLDPLLVWEGET (MGS peptide) [MGS_H1993.5],MSG Code and Cellular Location,[2],MGS_H1993.5_Intracellular
MTVCNASQRQAHAQATAVSL (MGS peptide) [MGS_A549.1],MSG Code and Cellular Location,[2],MGS_A549.1_Intracellular
QEALEEWFWKMMPWSGPSGQ (MGS peptide) [MGS_H1993.3],MSG Code and Cellular Location,[2],MGS_H1993.3_Intracellular
RGDLATLRQLAQEDGVVGVR (MGS peptide) [MGS_H2009.1],In Vivo Targeting,[3],Yes
same,MSG Code and Cellular Location,[2],MGS_H2009.1_Golgi
same,Cellular Location,[2],Golgi
SADWFQGPAEWLLEGWMGPL (MGS peptide) [MGS_H1993.6],MSG Code and Cellular Location,[2],MGS_H1993.6_Intracellular
SAKTAVSQRVWLPSHRGGEP (MGS peptide) [MGS_A20.1],MSG Code and Cellular Location,Lymphoma Cells,MGS_A20.1_PlasmaMembrane
SVEYWGERMYYDVMESLGFS (MGS peptide) [MGS_H1993.1],MSG Code and Cellular Location,[2],MGS_H1993.1_Lysosome
TWTDFGQWPWPFGAEGTRAF (MGS peptide) [MGS_H1993.4],MSG Code and Cellular Location,[2],MGS_H1993.4_Pre-mitotic cells
VSQTMRQTAVPLLWFWTGSL (MGS peptide) [MGS_H1299.1],MSG Code and Cellular Location,[2],MGS_H1299.1_Intracellular
WLSEAGPVVTVRALRGTGSW (MGS peptide) [MGS_PCM.1],MSG Code and Cellular Location,Cardiomyocytes,MGS_PCM.1_Intracellular
same,MSG Code and Cellular Location,Lymphoma Cells,MGS_PCM.1_ Plasma Membrane
YAAWPASGAWTGTAPCSAGT (MGS peptide) [MGS_1299.2],In Vivo Targeting,[3],Yes
same,MSG Code and Cellular Location,[2],MGS_H1299.2_Intracellular
same,Cellular Location,[2],Lysosome
YPGSPTQYPSSMHEYHSSSE (MGS peptide) [MGS_H2009.3],MSG Code and Cellular Location,[2],MGS_H2009.3_Lysosome

# Reference: patent US20220380764A1, “MOLECULAR GUIDE SYSTEM PEPTIDES AND USES THEREOF” (SRI International, priority 2019, published 2022)
